“And” between values parts separate entries of the source, which are not always exact repeats. Equal entries are not always repeated. Structures can show the parent of a compound that is named as a salt.
Biological target: T1, BACE1 (Homo sapiens, UniProt P56817)
T1 construct: purchased R&D 931-AS-050
Experiment: in vitro BACE inhibition assay (Primary BACE1 IC50)
Format: biochemical
Details: Table 4; several values in a cell = several determinations; read-out: BACE1 IC50
From the text: (§1) ABBI Assay: APP Binding BACE Inhibitor (ABBI) activity of any of the compounds described herein can readily be verified using, for example, assays described herein. Basically, in certain embodiments a pair the assays are utilized to identify ABBI compounds that inhibit BACE cleavage of the MBP-C125 APP substrate, resulting in the inhibition of the production of C99 and the β-site peptide substrate (P5-P5′) and also interacts with APP, for example, as measured by surface plasmon resonance (SPR) analysis. In one illustrative embodiment, an MBP-C125 APP695 wt fusion protein can be used as one of the substrates and the second substrate can be the commercially available P5-P5′ fluorescence substrate.

T1 sequence (P56817 46-457 limits assumed): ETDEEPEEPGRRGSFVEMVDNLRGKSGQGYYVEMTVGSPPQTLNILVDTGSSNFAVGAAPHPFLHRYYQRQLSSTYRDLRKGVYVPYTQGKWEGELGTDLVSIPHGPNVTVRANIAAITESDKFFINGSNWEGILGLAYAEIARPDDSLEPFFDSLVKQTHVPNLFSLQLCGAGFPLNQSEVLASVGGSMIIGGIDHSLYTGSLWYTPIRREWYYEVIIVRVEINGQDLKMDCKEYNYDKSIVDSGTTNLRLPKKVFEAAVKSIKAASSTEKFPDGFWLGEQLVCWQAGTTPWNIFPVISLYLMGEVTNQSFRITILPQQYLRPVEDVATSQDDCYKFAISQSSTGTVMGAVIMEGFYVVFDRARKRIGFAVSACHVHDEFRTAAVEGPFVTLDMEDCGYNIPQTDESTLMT

Q: For `Cc1cc(C2(c3cc(F)c(F)c(F)c3)N=C(N)N(C)C2=O)ccc1OC(F)F` (stereo not drawn) [FAH-19], which IC50 is on record?
A: 960 nM

Q: With `Cc1cc(C2(c3cccc(Cl)c3)N=C(N)N(C)C2=O)ccc1OC(F)F` (stereo not drawn) [FAH-23] as the molecule, how does the IC50 read?
A: 320 nM

Q: For `Cc1cc(C2(c3cc(F)cc(Cl)c3)N=C(N)N(C)C2=O)ccc1OC(F)F` (stereo not drawn) [FAH-25], which IC50 is on record?
A: 570 nM

Q: Which IC50 does the source give for `Cc1cccc(C2(c3ccc(OC(F)F)c(C)c3)N=C(N)N(C)C2=O)c1` (stereo not drawn) [FAH-27] here?
A: 130 nM

Q: With `Cc1cc(C2(c3cccc(C(F)(F)F)c3)N=C(N)N(C)C2=O)ccc1OC(F)F` (stereo not drawn) [FAH-28] as the molecule, how does the IC50 read?
A: 380 nM

Q: With `Cc1cc(C2(c3cccc(C(C)C)c3)N=C(N)N(C)C2=O)ccc1OC(F)F` (stereo not drawn) [FAH-29] as the molecule, how does the IC50 read?
A: 11000 nM

Q: With `Cc1cc(C2(c3cnn(C)c3)N=C(N)N(C)C2=O)ccc1OC(F)F` (stereo not drawn) [FAH-30] as the molecule, how does the IC50 read?
A: 2000 nM

Q: For `Cc1cc(C2(c3cncnc3)N=C(N)N(C)C2=O)ccc1OC(F)F` (stereo not drawn) [FAH-33], which IC50 is on record?
A: 10000 nM

Q: Which IC50 does the source give for `Cc1cc(C2(c3cccc(F)c3)N=C(N)N(Cc3ccccc3)C2=O)ccc1OC(F)F` (stereo not drawn) [FAH-42] here?
A: 2300 nM and 2700 nM

Q: Which IC50 does the source give for `Cc1cc(C2(c3ccc(OC(F)F)c(C)c3)N=C(N)N(C)C2=O)ccn1` (stereo not drawn) [FAH-47] here?
A: 1400 nM

Q: Which IC50 does the source give for `COc1cc(C2(c3ccc(OC(F)F)c(C)c3)N=C(N)N(C)C2=O)ccn1` (stereo not drawn) [FAH-48] here?
A: 4800 nM

Q: With `COCc1cc(C2(c3ccc(OC(F)F)c(C)c3)N=C(N)N(C)C2=O)ccn1` (stereo not drawn) [FAH-53] as the molecule, how does the IC50 read?
A: 1900 nM

Q: Which IC50 does the source give for `CC#Cc1cc(C2(c3ccc(OC(F)F)c(C)c3)N=C(N)N(C)C2=O)ccn1` (stereo not drawn) [FAH-57] here?
A: 240 nM

Q: For `CNCCc1cccc(C2(c3ccc(OC(F)F)c(C)c3)N=C(N)N(C)C2=O)c1` (stereo not drawn) [FAH-63], which IC50 is on record?
A: 1180 nM

Q: Which IC50 does the source give for `Cc1cc(C2(c3cccc(-c4ccccc4)c3)N=C(N)N(C)C2=O)ccc1OC(F)F` (stereo not drawn) [FAH-73] here?
A: 870 nM

Q: With `CN1C(=O)C(c2ccc(OC(F)F)cc2)(c2cccc(-c3cncnc3)c2)N=C1N` (stereo not drawn) [FAH-74] as the molecule, how does the IC50 read?
A: 10 nM

Q: For `Cc1cc(C2(c3ccncc3)N=C(N)N(C)C2=O)ccc1OC(F)F` (stereo not drawn) [FAH-78], which IC50 is on record?
A: 2730 nM

Q: For `Cc1cc(C2(C3CCNCC3)N=C(N)N(C)C2=O)ccc1OC(F)F` (stereo not drawn) [FAH-79], which IC50 is on record?
A: 17600 nM

Q: With `CCCc1cc(C2(c3ccc(OC(F)F)c(C)c3)N=C(N)N(C)C2=O)ccn1` (stereo not drawn) [FAH-80] as the molecule, how does the IC50 read?
A: 1670 nM

Q: With `CCCC1CC(C2(c3ccc(OC(F)F)c(C)c3)N=C(N)N(C)C2=O)CCN1` (stereo not drawn) [FAH-81] as the molecule, how does the IC50 read?
A: 14900 nM

Same assay, conditions: Tables 1 and 2; read-out: Primary BACE1 IC50

Q: Which IC50 does the source give for `Cc1cc(C2(c3cnn(C)c3)N=C(N)N(C)C2=O)ccc1OC(F)F` (stereo not drawn) [30 HCl] here?
A: 2000 nM

Q: Which IC50 does the source give for `Cc1cc(C2(c3cc(F)cc(F)c3)N=C(N)N(C)C2=O)ccc1OC(F)F` (stereo not drawn) [FAH-03] here?
A: 530 nM

Q: For `Cc1cc(C2(c3cccc(Cl)c3)N=C(N)N(C)C2=O)ccc1OC(F)F` (stereo not drawn) [FAH-23], which IC50 is on record?
A: 320 nM

Q: Which IC50 does the source give for `Cc1cc(C2(c3cc(F)cc(Cl)c3)N=C(N)N(C)C2=O)ccc1OC(F)F` (stereo not drawn) [FAH-25] here?
A: 570 nM

Q: Which IC50 does the source give for `Cc1cccc(C2(c3ccc(OC(F)F)c(C)c3)N=C(N)N(C)C2=O)c1` (stereo not drawn) [FAH-27] here?
A: 130 nM

Q: Which IC50 does the source give for `Cc1cc(C2(c3cccc(C(F)(F)F)c3)N=C(N)N(C)C2=O)ccc1OC(F)F` (stereo not drawn) [FAH-28] here?
A: 380 nM

Q: With `Cc1cc(C2(c3cncnc3)N=C(N)N(C)C2=O)ccc1OC(F)F` (stereo not drawn) [FAH-33] as the molecule, how does the IC50 read?
A: 10000 nM

Q: With `Cc1cc(C2(c3ccc(OC(F)F)c(C)c3)N=C(N)N(C)C2=O)ccn1` (stereo not drawn) [FAH-47] as the molecule, how does the IC50 read?
A: 1400 nM

Q: Which IC50 does the source give for `COc1cc(C2(c3ccc(OC(F)F)c(C)c3)N=C(N)N(C)C2=O)ccn1` (stereo not drawn) [FAH-48] here?
A: 4800 nM

Q: With `COCc1cc(C2(c3ccc(OC(F)F)c(C)c3)N=C(N)N(C)C2=O)ccn1` (stereo not drawn) [FAH-53] as the molecule, how does the IC50 read?
A: 2000 nM

Same assay, conditions: in vitro BACE inhibition assay, FIG. 8; read-out: IC50

Q: For `CN1C(=O)C(c2ccc(OC(F)F)cc2)(c2cccc(-c3cncnc3)c2)N=C1N` (stereo not drawn) [FAH-74], which IC50 is on record?
A: 9 nM

Biological target: T2, APP (Homo sapiens, UniProt P05067)
T2 construct: made in house
Experiment: APP binding (APP Kd), surface plasmon resonance
Details: not given
From the text: as §1, with “substrate. […]” for “substrate.”

T2 sequence (P05067 230-624 isoform P05067-4): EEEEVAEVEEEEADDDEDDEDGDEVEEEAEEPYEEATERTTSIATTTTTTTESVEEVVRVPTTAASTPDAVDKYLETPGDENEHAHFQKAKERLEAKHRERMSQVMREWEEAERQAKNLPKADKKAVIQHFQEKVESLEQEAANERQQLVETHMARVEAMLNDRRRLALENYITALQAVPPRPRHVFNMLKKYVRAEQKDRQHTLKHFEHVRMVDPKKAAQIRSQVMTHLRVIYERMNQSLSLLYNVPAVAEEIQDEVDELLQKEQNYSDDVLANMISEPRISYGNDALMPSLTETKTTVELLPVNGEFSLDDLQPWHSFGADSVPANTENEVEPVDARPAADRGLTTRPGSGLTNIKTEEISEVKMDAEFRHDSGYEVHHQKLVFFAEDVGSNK

Q: For `Cc1cc(C2(c3cc(F)cc(F)c3)N=C(N)N(C)C2=O)ccc1OC(F)F` (stereo not drawn) [FAH-03], which Kd is on record?
A: ~300 nM

System: not listed separately
Experiment: PAMPA parallel artificial membrane permeability assay
Format: in vitro ADME
Details: Table 4

Q: Which PAMPA does the source give for `CNCCc1cccc(C2(c3ccc(OC(F)F)c(C)c3)N=C(N)N(C)C2=O)c1` (stereo not drawn) [FAH-63] here?
A: 0.36

— US20190077766A1, “Compositions For APP-Selective BACE Inhibition And Uses Therefor” (NantNeuro, LLC, priority 2015, published 2019)
